For one test, the target named is T1, PDGFRβ (Homo sapiens, UniProt P09619).
T1 construct: made in house
The experiment in a line: Competition binding assay, PDGFRβ Kd. The following applies: competition binding. In a few lines: (§1)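 Kinases, either T7 phage fusions or HEK-293-expressed and DNA-tagged, competed with test compounds for immobilized biotinylated affinity ligand on streptavidin beads in binding buffer (20% SeaBlock, 0.17×PBS, 0.05% Tween 20, 6 mM DTT). After 1 hour at room temperature, bead-bound kinase was eluted and quantified by qPCR; Kd from eleven-point threefold dilutions.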

Another test has as its system M-NFS-60 cells. In words: M-NFS-60 cell proliferation assay (Alamar Blue). The test is classed as cell-based, mouse. The following applies: M-NFS-60 cell proliferation, read-out: CSF1R M-NFS-60 CTB:IC50. Put shortly:
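Mouse M-NFS-60 cells growing on 20 ng/mL M-CSF in RPMI/10% FBS were exposed to compounds (9 half-log concentrations, 0.5% DMSO) for 72 h at 37 °C. Viability read by Alamar Blue fluorescence (ex 560/em 590 nm, 3 h). IC50 = 50% proliferation inhibition versus control, mean of duplicates.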
(In general: Resazurin is reduced to fluorescent resorufin, in cell work by metabolically active cells.)

The next test has as its target T2, KIT (Homo sapiens, UniProt P10721).
T2 construct: made in house
The experiment in a line: Competition binding assay, KIT Kd. The following applies: competition binding. In a few lines: as §1

A further test concerns the target CSF1R (Homo sapiens, UniProt P07333). The experiment in a line: Competition binding assay, CSF1R Kd. The arrangement: made in house. The following applies: competition binding. Put shortly:
as §1

Test [1] concerns the target kinase panel containing either 386 or 392 distinct kinases. The experiment in a line: Kinase selectivity score S10 from competition binding panel. The following applies: 10 μM, panel of 386 or 392 distinct kinases. In a few lines: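 Compounds at 10 μM competed against immobilised affinity ligands for T7 phage-fused or HEK-293-expressed DNA-tagged kinases, 1 h at room temperature; bound kinase eluted and quantified by qPCR. S10 = fraction of distinct non-mutant kinases with percent of DMSO control below 10.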

Where two headings read alike, the source gives them in different places. Where only a bound is given, the exact number is not on record here.

Sequence of CSF1R (P07333 20-972): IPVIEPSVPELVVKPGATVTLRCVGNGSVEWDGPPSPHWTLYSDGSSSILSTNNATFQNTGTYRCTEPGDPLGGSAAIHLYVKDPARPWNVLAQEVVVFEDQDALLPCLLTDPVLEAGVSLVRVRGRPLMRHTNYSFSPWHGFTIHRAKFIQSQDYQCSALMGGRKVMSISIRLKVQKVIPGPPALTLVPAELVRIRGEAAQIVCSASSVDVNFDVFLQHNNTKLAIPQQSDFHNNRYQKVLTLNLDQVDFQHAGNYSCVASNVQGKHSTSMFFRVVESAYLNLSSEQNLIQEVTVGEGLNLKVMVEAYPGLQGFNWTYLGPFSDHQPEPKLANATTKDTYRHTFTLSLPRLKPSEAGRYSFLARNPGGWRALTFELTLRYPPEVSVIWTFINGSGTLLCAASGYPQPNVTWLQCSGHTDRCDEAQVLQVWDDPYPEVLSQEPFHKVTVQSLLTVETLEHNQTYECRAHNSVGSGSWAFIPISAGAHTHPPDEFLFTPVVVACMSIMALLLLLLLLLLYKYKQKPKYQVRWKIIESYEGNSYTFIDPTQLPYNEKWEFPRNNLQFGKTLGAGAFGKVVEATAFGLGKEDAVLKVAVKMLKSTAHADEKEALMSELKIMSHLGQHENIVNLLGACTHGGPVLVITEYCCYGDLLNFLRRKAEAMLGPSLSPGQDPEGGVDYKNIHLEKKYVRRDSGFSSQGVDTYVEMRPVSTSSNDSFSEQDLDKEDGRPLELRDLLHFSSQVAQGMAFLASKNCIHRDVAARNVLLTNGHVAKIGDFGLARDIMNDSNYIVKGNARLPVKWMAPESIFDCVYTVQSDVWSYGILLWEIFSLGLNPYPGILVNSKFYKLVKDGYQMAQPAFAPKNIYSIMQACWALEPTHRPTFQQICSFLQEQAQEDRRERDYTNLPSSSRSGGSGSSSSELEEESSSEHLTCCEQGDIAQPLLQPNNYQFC
T1 sequence (P09619 33-1106): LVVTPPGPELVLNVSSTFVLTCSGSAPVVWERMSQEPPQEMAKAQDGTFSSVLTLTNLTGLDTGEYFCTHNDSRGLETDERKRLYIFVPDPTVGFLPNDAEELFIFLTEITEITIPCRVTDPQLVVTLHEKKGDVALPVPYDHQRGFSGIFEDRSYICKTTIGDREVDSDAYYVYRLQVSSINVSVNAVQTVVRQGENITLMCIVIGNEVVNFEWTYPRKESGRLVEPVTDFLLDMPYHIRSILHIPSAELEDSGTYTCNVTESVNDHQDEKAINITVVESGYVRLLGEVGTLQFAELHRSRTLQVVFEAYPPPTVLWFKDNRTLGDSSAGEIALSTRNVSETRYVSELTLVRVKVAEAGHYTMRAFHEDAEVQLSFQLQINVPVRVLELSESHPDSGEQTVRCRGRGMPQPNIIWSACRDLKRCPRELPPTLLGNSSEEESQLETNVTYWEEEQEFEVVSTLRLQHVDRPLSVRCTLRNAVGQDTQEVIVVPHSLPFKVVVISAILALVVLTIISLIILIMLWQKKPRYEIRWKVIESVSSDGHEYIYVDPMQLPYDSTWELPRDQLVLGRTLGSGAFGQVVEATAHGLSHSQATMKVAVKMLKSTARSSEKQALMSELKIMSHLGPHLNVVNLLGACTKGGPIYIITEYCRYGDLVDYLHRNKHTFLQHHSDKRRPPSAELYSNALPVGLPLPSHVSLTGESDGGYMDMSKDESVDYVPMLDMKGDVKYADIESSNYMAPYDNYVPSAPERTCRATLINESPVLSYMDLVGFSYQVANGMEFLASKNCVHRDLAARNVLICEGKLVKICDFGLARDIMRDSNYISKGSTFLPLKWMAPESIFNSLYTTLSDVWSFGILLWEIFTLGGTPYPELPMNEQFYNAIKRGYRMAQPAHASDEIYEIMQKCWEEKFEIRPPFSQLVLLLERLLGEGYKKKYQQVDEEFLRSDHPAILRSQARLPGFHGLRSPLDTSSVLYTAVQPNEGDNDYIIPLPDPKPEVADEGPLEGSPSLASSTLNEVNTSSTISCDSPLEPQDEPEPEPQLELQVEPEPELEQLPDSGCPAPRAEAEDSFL
T2 sequence (P10721 26-976): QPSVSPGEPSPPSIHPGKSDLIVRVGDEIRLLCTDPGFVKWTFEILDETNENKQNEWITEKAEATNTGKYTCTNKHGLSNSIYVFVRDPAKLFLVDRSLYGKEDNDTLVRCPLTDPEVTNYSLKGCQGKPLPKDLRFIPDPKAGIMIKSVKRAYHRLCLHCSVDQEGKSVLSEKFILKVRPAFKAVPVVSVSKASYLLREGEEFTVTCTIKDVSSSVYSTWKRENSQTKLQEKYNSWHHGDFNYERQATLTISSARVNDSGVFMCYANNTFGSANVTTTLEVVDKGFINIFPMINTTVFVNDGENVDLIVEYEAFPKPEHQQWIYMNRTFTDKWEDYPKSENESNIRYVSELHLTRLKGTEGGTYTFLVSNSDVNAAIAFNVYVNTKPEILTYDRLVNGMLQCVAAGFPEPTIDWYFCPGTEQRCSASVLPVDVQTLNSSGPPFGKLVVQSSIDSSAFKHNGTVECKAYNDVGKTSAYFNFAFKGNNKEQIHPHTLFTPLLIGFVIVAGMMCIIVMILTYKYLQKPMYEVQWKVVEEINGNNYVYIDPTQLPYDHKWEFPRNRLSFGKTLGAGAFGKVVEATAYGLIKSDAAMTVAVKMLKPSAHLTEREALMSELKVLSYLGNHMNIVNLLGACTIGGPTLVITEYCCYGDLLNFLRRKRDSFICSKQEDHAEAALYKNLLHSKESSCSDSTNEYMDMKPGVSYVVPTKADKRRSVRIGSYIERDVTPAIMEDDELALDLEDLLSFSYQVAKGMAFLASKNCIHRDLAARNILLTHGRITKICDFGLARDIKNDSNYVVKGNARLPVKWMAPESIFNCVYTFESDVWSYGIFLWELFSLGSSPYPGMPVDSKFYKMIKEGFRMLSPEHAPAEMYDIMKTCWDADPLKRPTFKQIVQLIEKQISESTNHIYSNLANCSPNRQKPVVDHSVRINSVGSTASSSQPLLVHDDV

For orientation: Kd means the free concentration of one partner at which half of the binding sites on the other are occupied at equilibrium, for simple one-to-one binding. High values mean a looser complex, low ones a tighter complex. For orientation: IC50 means the concentration at which inhibition is half-maximal. For `O[C@@H]1CCCC[C@H]1Nc1nc2c(Cl)cc(Cc3cnc4ccc(N5CCOCC5)nn34)cc2s1` [Example 156, (1R,2R)-2-((4-chloro-6-((6-morpholinoimidazo[1,2-b]pyridazin-3-yl)methyl)benzo[d]thiazol-2-yl)amino)cyclohexanol], the Kd on PDGFRβ was 500 to 2000 nM; at KIT, more than 2000 nM; on CSF1R, 5 to 20 nM. For the same compound, the 50% inhibitory concentration (IC50) with M-NFS-60 cells (Mus musculus) was in the range of 400 to 1500 nM. Also, the “Kinase specificity S(10)” value in test [1] is on record as “A (A≤0.01)”.
Taken in the same sequence, the figures for `O[C@@H]1CCCC[C@H]1Nc1nc2ccc(Cc3cnc4sccn34)cc2s1` [Example 157, (1R,2R)-2-((6-(imidazo[2,1-b]thiazol-5-ylmethyl)benzo[d]thiazol-2-yl)amino)cyclohexanol] were 500 to 2000 nM, more than 2000 nM, 20 to 50 nM, 400 to 1500 nM and “A (A≤0.01)”.
As for `O[C@@H]1CCCC[C@H]1Nc1nc2ccc(Cc3cnc4ccc(Cl)nn34)cc2s1` [Example 158, (1R,2R)-2-((6-((6-chloroimidazo[1,2-b]pyridazin-3-yl)methyl)benzo[d]thiazol-2-yl)amino)cyclohexanol], the Kd on PDGFRβ is not above 50 nM; at KIT, not above 100 nM; at CSF1R, not above 5 nM. In the test with M-NFS-60 cells (Mus musculus), the IC50 is not above 50 nM. Further, in test [1], the “Kinase specificity S(10)” value is recorded as “B (0.01<B≤0.02)”.
As to `O[C@@H]1CCCC[C@H]1Nc1nc2ccc(Cc3cnc4ccc(-n5cccn5)cn34)cc2s1` [Example 159, (1R,2R)-2-((6-((6-(1H-pyrazol-1-yl)imidazo[1,2-a]pyridin-3-yl)methyl)benzo[d]thiazol-2-yl)amino)cyclohexanol], the Kd at PDGFRβ lay in the range of 500 to 2000 nM; on KIT, 500 to 2000 nM; on CSF1R, 5 to 20 nM. Further, the IC50 with M-NFS-60 cells (Mus musculus) fell in the range of 400 to 1500 nM. For the same compound, the “Kinase specificity S(10)” value in test [1] is given as “A (A≤0.01)”.
For `O[C@@H]1CCCC[C@H]1Nc1nc2ccc(Cn3cnc4cc(-n5cccn5)ccc43)cc2s1` [Example 160, (1R,2R)-2-((6-((5-(1H-pyrazol-1-yl)-1H-benzo[d]imidazol-1-yl)methyl)benzo[d]thiazol-2-yl)amino)cyclohexanol], the values for the equilibrium dissociation constant (Kd) on PDGFRβ, at KIT and on CSF1R were not above 50 nM, not above 100 nM and not above 5 nM, respectively. Also, the IC50 with M-NFS-60 cells (Mus musculus) is not above 50 nM. For the same compound, the “Kinase specificity S(10)” value in test [1] is given as “A (A≤0.01)”.
With `O[C@@H]1CCCC[C@H]1Nc1nc2ccc(Cn3cnc4cc(-n5cncn5)ccc43)cc2s1` [Example 161, (1R,2R)-2-((6-((5-(1H-1,2,4-triazol-1-yl)-1H-benzo[d]imidazol-1-yl)methyl)benzo[d]thiazol-2-yl)amino)cyclohexanol], the results for the dissociation constant Kd on PDGFRβ, at KIT and on CSF1R were 50 to 500 nM, 100 to 500 nM and 5 to 20 nM, respectively. Also, in the test with M-NFS-60 cells (Mus musculus), the half-maximal inhibitory concentration (IC50) is 50 to 400 nM. The “Kinase specificity S(10)” value in test [1] is given as “A (A≤0.01)”.
Regarding `O[C@H]1CCCC[C@H]1Nc1nc2ccc(Cn3cnc4cc(F)cnc43)cc2s1` [Example 162, (1S,2R)-2-((6-((6-fluoro-3H-imidazo[4,5-b]pyridin-3-yl)methyl)benzo[d]thiazol-2-yl)amino)cyclohexanol], the Kd is 50 to 500 nM at PDGFRβ, 100 to 500 nM on KIT and not above 5 nM at CSF1R. In addition, the IC50 with M-NFS-60 cells fell in the range of 50 to 400 nM. The “Kinase specificity S(10)” value in test [1] was “A (A≤0.01)”.
For `O[C@H]1CC[C@H](Nc2nc3ccc(Cn4cnc5cc(F)cnc54)cc3s2)CC1` [Example 163, trans-4-((6-((6-fluoro-3H-imidazo[4,5-b]pyridin-3-yl)methyl)benzo[d]thiazol-2-yl)amino)cyclohexanol], the figures for the dissociation constant Kd at PDGFRβ, on KIT and on CSF1R were 50 to 500 nM, 100 to 500 nM and more than 50 nM, respectively. In the test on M-NFS-60 cells (Mus musculus), the IC50 is more than 1500 nM. In test [1], the “Kinase specificity S(10)” value is listed as “A (A≤0.01)”.
In the case of `O[C@@H]1CCCC[C@H]1Nc1nc2ccc(Cn3cnc4cccnc43)c(F)c2s1` [Example 164, (1R,2R)-2-((6-((3H-imidazo[4,5-b]pyridin-3-yl)methyl)-7-fluorobenzo[d]thiazol-2-yl)amino)cyclohexanol], the dissociation constant Kd is 500 to 2000 nM on PDGFRβ, more than 2000 nM on KIT and 5 to 20 nM on CSF1R. Moreover, the 50% inhibitory concentration (IC50) with M-NFS-60 cells (Mus musculus) is 400 to 1500 nM. The “Kinase specificity S(10)” value in test [1] is “A (A≤0.01)”.
Taken in the same sequence, the figures for `COc1ccc2ncc(Cc3ccc4nc(N[C@@H]5CCCC[C@H]5O)sc4c3)n2c1` [Example 165, (1R,2R)-2-((6-((6-methoxyimidazo[1,2-a]pyridin-3-yl)methyl)benzo[d]thiazol-2-yl)amino)cyclohexanol] were 500 to 2000 nM, 500 to 2000 nM, 5 to 20 nM, 400 to 1500 nM and “A (A≤0.01)”.
The like results for `O[C@@H]1CCCC[C@H]1Nc1nc2c(Br)cc(Cn3cnc4cccnc43)cc2s1` [Example 166, (1R,2R)-2-((6-((3H-imidazo[4,5-b]pyridin-3-yl)methyl)-4-bromobenzo[d]thiazol-2-yl)amino)cyclohexanol] were, in that order, more than 2000 nM, 500 to 2000 nM, 5 to 20 nM, 400 to 1500 nM and “A (A≤0.01)”.
On to `O[C@@H]1CCCC[C@H]1Nc1nc2ccc(Cc3cnc4cc(-n5cccn5)ccn34)cc2s1` [Example 167, (1R,2R)-2-((6-((7-(1H-pyrazol-1-yl)imidazo[1,2-a]pyridin-3-yl)methyl)benzo[d]thiazol-2-yl)amino)cyclohexanol], for which the equilibrium dissociation constant (Kd) on PDGFRβ was 50 to 500 nM; at KIT, 100 to 500 nM; at CSF1R, not above 5 nM. For the same compound, the IC50 in the test with M-NFS-60 cells (Mus musculus) was not above 50 nM. Also, the “Kinase specificity S(10)” value in test [1] is “A (A≤0.01)”.
As to `O[C@@H]1CCCC[C@H]1Nc1nc2c(F)cc(Cn3cnc4cccnc43)c(F)c2s1` [Example 168, (1R,2R)-2-((6-((3H-imidazo[4,5-b]pyridin-3-yl)methyl)-4,7-difluorobenzo[d]thiazol-2-yl)amino)cyclohexanol], the equilibrium dissociation constant (Kd) is more than 2000 nM on PDGFRβ, more than 2000 nM on KIT and 5 to 20 nM on CSF1R. In addition, the half-inhibitory concentration (IC50) in the test with M-NFS-60 cells (Mus musculus) fell in the range of 400 to 1500 nM. Also, the “Kinase specificity S(10)” value in test [1] is reported as “A (A≤0.01)”.
As for `O[C@@H]1CCCC[C@H]1Nc1nc2ccc(Cc3cnc4cc(-n5cncn5)ccn34)cc2s1` [Example 169, (1R,2R)-2-((6-((7-(1H-1,2,4-triazol-1-yl)imidazo[1,2-a]pyridin-3-yl)methyl)benzo[d]thiazol-2-yl)amino)cyclohexanol], the equilibrium dissociation constant (Kd) on PDGFRβ lay within 50 to 500 nM; on KIT, 500 to 2000 nM; on CSF1R, 5 to 20 nM. Moreover, in the test with M-NFS-60 cells (Mus musculus), the IC50 was in the range of 50 to 400 nM. The “Kinase specificity S(10)” value in test [1] was “A (A≤0.01)”.
The like results for `N#Cc1ccc2c(c1)ncn2Cc1ccc2nc(N[C@@H]3CCCC[C@H]3O)oc2c1` [Example 170, 1-((2-(((1R,2R)-2-hydroxycyclohexyl)amino)benzo[d]oxazol-6-yl)methyl)-1H-benzo[d]imidazole-5-carbonitrile] were, in that order, 500 to 2000 nM, more than 2000 nM, more than 50 nM, more than 1500 nM and “A (A≤0.01)”.
Taken in the same sequence, the figures for `O[C@@H]1CCCC[C@H]1Nc1nc2ccc(Cn3cnc4cc(OCCN5CCOCC5)ccc43)cc2s1` [Example 171, (1R,2R)-2-((6-((5-(2-morpholinoethoxy)-1H-benzo[d]imidazol-1-yl)methyl)benzo[d]thiazol-2-yl)amino)cyclohexanol] were not above 50 nM, not above 100 nM, 5 to 20 nM, 50 to 400 nM and “C (C>0.02)”.
The like results for `OCCOc1ccc2c(c1)ncn2Cc1ccc2nc(N[C@@H]3CCCC[C@H]3O)sc2c1` [Example 172, (1R,2R)-2-((6-((5-(2-hydroxyethoxy)-1H-benzo[d]imidazol-1-yl)methyl)benzo[d]thiazol-2-yl)amino)cyclohexanol] were, in that order, 50 to 500 nM, 100 to 500 nM, not above 5 nM, 50 to 400 nM and “B (0.01<B≤0.02)”.
For the compound `CNC(=O)c1ccc2c(c1)ncn2Cc1ccc2nc(N[C@@H]3CCCC[C@H]3O)sc2c1` [Example 173, 1-((2-(((1R,2R)-2-hydroxycyclohexyl)amino)benzo[d]thiazol-6-yl)methyl)-N-methyl-1H-benzo[d]imidazole-5-carboxamide], the dissociation constant (Kd) on PDGFRβ was 50 to 500 nM; at KIT it was 100 to 500 nM; at CSF1R, 5 to 20 nM. In addition, the 50% inhibitory concentration (IC50) with M-NFS-60 cells (Mus musculus) fell in the range of 50 to 400 nM. In addition, the “Kinase specificity S(10)” value in test [1] was “B (0.01<B≤0.02)”.
The like results for `C=C(c1ccc2c(c1)ncn2Cc1ccc2nc(N[C@@H]3CCCC[C@H]3O)sc2c1)C(F)(F)F` [Example 175, (1R,2R)-2-((6-((5-(3,3,3-trifluoroprop-1-en-2-yl)-1H-benzo[d]imidazol-1-yl)methyl)benzo[d]thiazol-2-yl)amino)cyclohexanol] were, in that order, 50 to 500 nM, 100 to 500 nM, 5 to 20 nM, 50 to 400 nM and “A (A≤0.01)”.

For the origin of these results see patent US9938261B2, “Heterocyclic compounds and methods of use thereof” (AMBIT BIOSCIENCES CORPORATION, priority 2011, dated 2018).
